The source of these data is patent US20180140572A1, “COMPOSITIONS COMPRISING A CANCER STEMNESS INHIBITOR AND AN IMMUNOTHERAPEUTIC AGENT FOR USE IN TREATING CANCER” (Boston Biomedical, Inc., priority 2015, published 2018).

Each structure is given as a SMILES string.

For one experiment, the system named is CD44. The experiment is described as follows: CD44 protein expression in ovarian cancer xenograft model (SKOV-3). Type of experiment: in vivo, mouse. The note with it: SKOV-3 xenograft, 0, 1, 2, 4, 8, 16, or 24 hours after treatment. On the procedure:
(§1) At the end of treatment, tumors were harvested from euthanized mice. Part of the dissected tumors were fixed overnight in 3.7% or 10% neutral buffered formaldehyde at 4° C., and then paraffin embedded, cut to 4-5 micron sections, and affixed onto positively charged slides. After baking and deparaffinization, the slides with tumor or control tissues were incubated in a 10 mM sodium citrate solution pH=6.0 for antigen retrieval at 98° C. Afterwards, slides were probed with primary antibodies against P-STAT3 (Tyr705) (rabbit, Cell Signaling, 1:100), β-CATENIN (mouse, Santa Cruz, 1:400), IL-6 (mouse, Novus Biol., 1:100), PD-L1 (rabbit, Cell Signaling, 1:100), PCNA (mouse, Santa Cruz, 1:5000), CD8a (rabbit, Santa Cruz, 1:30), CD44 (rat, BioLegend, 1:50), CD44 (mouse, Cell Signaling, 1:100), CD133 (mouse, Miltenyi, 1:100), IDO1 (mouse, Millipore 1:100), or/and CD3 (rabbit, Abcam, 1:100) at 4° C. overnight, and then AlexaFluor fluorescent dye-conjugated secondary antibodies (Invitrogen, 1:300 or 1:500) at room temperature for one hour. After mounting in ProLong mounting medium containing DAPI (Invitrogen), the slides were examined on a Zeiss Axio Imager M2 upright fluorescence microscope with a 20× objective and analyzed with Zen software.

Experiment [1] concerns CD8^+ T cells producing IFN-γ. The experiment is described as follows: Tumor antigen-specific T cell immune response (IFN-γ producing spleen CD8+ T cells). Type of experiment: in vivo, Apc^Min/+ mice. The note with it: in the presence of the tumor antigen, vs control samples. The source says:
All animals were housed in Association for Assessment and Accreditation of Laboratory Animal Care-approved facilities in static microisolator cages. Testing confirmed the mice were pathogen-free and there was no evidence of murine Helicobacter spp. by culture or PCR. Apc^Min/+ mice on a C57BL/6J background were originally obtained from the Jackson Laboratory (Bar Harbor, Me.) and bred in-house to wild-type (wt) C57BL/6J mice to generate Apc^Min/+. 17 week old Apc^Min/+ mice or matched wild-type controls were treated with either vehicle alone, or BBI608 at 200 mg/kg daily by oral gavage (p.o., q.d.) for 4 consecutive days (n=4/group). Body weight and clinical signs were monitored throughout the course of the treatment. On treatment day 4, the animals were sacrificed 4 hours after the last dose and the tumors in the Apc^Min/+ small intestine or a piece of normal intestine, from wild type controls, were harvested.
Spleen tissues were collected from the above APC^Min/+ mice at the time of tumor harvesting. CD8^+ T cells were separated using a CD8^+ T cells isolation kit according to the manufacturer's protocol (STEMCELL Technology). […] Intracellular IFN-γ was then stained with Alexa-647 labeled rat anti-mouse IFN-γ antibody (1:100, BD) and CD8^+ T cells producing IFN-γ were analyzed under the Zeiss fluorescence microscope described above.

A further experiment deals with STAT3 pathway. The note with it: read-out: STAT3 pathway activity cellular IC50; cited from earlier work.
The test system of experiment [2] is IDO1. Description: Endogenous IDO1 mRNA in SKOV3 cells (qPCR). The class given is cell-based. The settings on record: 6 or 24 hour, 1 μM or 2 μM, normalized to GAPDH. From the text: Specifically, RNA was isolated, reverse transcribed, and the cDNA was used in a qPCR assay to determine the mRNA levels for IDO1. Data was normalized to GAPDH.
In a further experiment the test system is CD8^+ T cells. Description: Tumor infiltrating CD8+ T cells in Apc^Min/+ mouse model of colon cancer (immunofluorescence). The note with it: BBI608 200 mg/kg p.o. q.d. 4 days, vs control group. Type of experiment: in vivo, Apc^Min/+ C57BL/6J mice. On the procedure: (§2) At the end of treatment, tumors were harvested from euthanized mice. Part of the dissected tumors were fixed overnight in 3.7% or 10% neutral buffered formaldehyde at 4° C., and then paraffin embedded, cut to 4-5 micron sections, and affixed onto positively charged slides. After baking and deparaffinization, the slides with tumor or control tissues were incubated in a 10 mM sodium citrate solution pH=6.0 for antigen retrieval at 98° C. […] After mounting in ProLong mounting medium containing DAPI (Invitrogen), the slides were examined on a Zeiss Axio Imager M2 upright fluorescence microscope with a 20× objective and analyzed with Zen software.
All animals were housed in Association for Assessment and Accreditation of Laboratory Animal Care-approved facilities in static microisolator cages. […] Body weight and clinical signs were monitored throughout the course of the treatment. […]
CD8^+ levels were analyzed by immunofluorescence.

Experiment [3] concerns IDO1. Description: IDO1 expression in colorectal cancer xenograft model (SW480). Type of experiment: in vivo, mouse. The settings on record: SW480 xenograft, 0, 1, 2, 4, 8, and 24 hours. On the procedure:
(§3) FIG. 13A and FIG. 13B show an exemplary reduction in IDO1 expression at 0, 1, 2, 4, 8, and 24 hours after treatment of SW480 xenograft colorectal cancer cells (FIG. 13A) and SKOV3 xenograft ovarian cancer cells (FIG. 13B) with an exemplary cancer sternness inhibitor, e.g., BBI608, according to certain embodiments of the present disclosure.
as §2

For experiment [4], the system named is IDO1. Description: IDO1 protein levels in SKOV3 cells. Type of experiment: cell-based.
Another experiment concerns CT26 tumor cells. The experiment is described as follows: Tumor sphere formation of cells dissociated from treated CT26 tumors. The note with it: 1000 live tumor cells from treated tumors, 10 days in culture, vs control. The class given is cell-based, mouse. On the procedure: Portions of tumor tissues were dissociated into a single cell suspension by enzymatic digestion with DMEM (Gibco) containing 200 U/mL Collagenase (Sigma) and 100 U/mL DNAse I (Sigma) at 37° C. for 30 minutes. Cells were then filtered through 40 μm strainers and incubated for 5 min at room temperature in ACK lysis buffer (Thermo Fisher) to remove red blood cells. 1000 live tumor cells, as assessed by Trypan blue (Gibco) staining, were then suspended in 1 mL sphere medium and plated on a low-attachment cell culture 12-well plate in triplicate. Cancer sphere culture medium included B-27 (Gibco), 20 ng/ml EGF (R&D), 10 ng/ml basicFGF (R&D), 0.4% BSA Gemini, and 0.3% agarose in DMEM/F12 (Gibco). After 10 days in culture, the number of tumor spheres was counted.

In experiment [5] the test system is IDO1. Description: IDO1 expression in ovarian cancer xenograft model (SKOV-3). Type of experiment: in vivo, mouse. The settings on record: SKOV-3 xenograft, 0, 1, 2, 4, 8, and 24 hours. How it is done: as §3, §2
Experiment [6] concerns IL-6. The experiment is described as follows: IL-6 level in colorectal cancer xenograft model (SW480). The class given is in vivo, mouse. The note with it: SW480 xenograft, 0, 1, 2, 4, 8, or 24 hours after treatment. How it is done: as §1
In experiment [7] the test system is IL-6. The experiment is described as follows: IL-6 protein production by HeLa cells. The class given is cell-based. The note with it: different concentrations.

Consider `CC(=O)c1cc2c(o1)C(=O)c1ccccc1C2=O` [BBI608, 2-acetylnaphtho[2,3-b]furan-4,9-dione], for which, in the experiment on CD44, the CD44 protein expression result is given as “inhibited CD44 protein expression in a time-dependent manner”. Also, the “percentage of CD8^+ T cells producing INF-γ” value in [1] was “higher percentage”. Further, in the experiment with STAT3 pathway, the IC50 is approximately 250 nM. For the same compound, the “endogenous IDO1 expression (mRNA)” value in the experiment on IDO1 [2] is given as “inhibited”. Also, the “number of tumor infiltrating CD8^+ T cells” value with CD8^+ T cells is recorded as “increased the number of tumor infiltrating CD8^+ T cells significantly”. In addition, the IDO1 expression level entry with IDO1 [3] is on record as “reduced IDO1 expression level in a time-dependent manner”; in the experiment with IDO1 [5] it was “reduced the IDO1 expression level in a time-dependent manner”. For the same compound, the IDO1 protein levels result in the experiment on IDO1 [4] (8 or 24 hours) and in the experiment on IDO1 [4] (3 hours) was “reduced” each time. Besides, the “number of tumor spheres” value with CT26 tumor cells was “significantly lower numbers of spheres than control”. Besides, the IL-6 level entry with IL-6 [6] was “reduced IL-6 level in a time-dependent manner”. In the experiment on IL-6 [7], the IL-6 protein production result is recorded as “downregulated”.
